Measurements: patent US12370235B2, “Synthetic, non-natural antimicrobial peptides inspired by Staphylococcus auricularis delta toxin” (University of Saskatchewan, priority 2021, dated 2025)
Ends that are not written are not given here.

Legend:
[1] = tested on: Mannheimia haemolytica ATCC 33393; experiment: MIC, broth dilution; format: cell-based; conditions: Table 11; highest concentration 25 μg/mL
Outline: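 Read-out is the lowest peptide concentration showing no growth after an overnight standing culture at 37 °C. Two-fold serial dilutions of 95%-pure peptide were tested against M. haemolytica ATCC 33393 at OD 6×10^−4 in cation-adjusted MH broth.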

[2] = tested on: C. albicans Y537; experiment: MIC, YPD broth; format: cell-based, Candida albicans; conditions: Table 8
[3] = tested on: C. albicans MYA-2876; experiment: MIC, YPD broth; format: cell-based, Candida albicans; conditions: Table 8
Outline: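 Yeast cells were diluted in YPD broth, and 180 μl aliquots were mixed with 20 μl of peptide from 2-fold serial dilutions in flat-bottom 96-well microtitre plates. Wells receiving 20 μl sterile water served as controls. After standing incubation overnight at 37° C, the MIC was taken as the lowest peptide concentration with no visible microbial growth.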

[4] = tested on: S. aureus ATCC BAA-42 (MRSA SCCmec type VI); experiment: MIC, broth dilution; format: cell-based, Staphylococcus aureus; conditions: Table 5; STIP3 variants, highest concentration 100 μg/mL
Outline: (§1)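 Peptides (95% purity) were serially diluted 2-fold and mixed with bacteria diluted to OD 6×10^−4 in cation-adjusted Mueller Hinton broth. Standing cultures were incubated overnight at 37° C. MIC was the lowest peptide concentration with no observed growth.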

[5] = tested on: S. aureus ATCC BAA-2313 (MRSA SCCmec type XI); experiment: MIC, broth dilution; format: cell-based, Staphylococcus aureus; conditions: Table 5; STIP3 variants, highest concentration 100 μg/mL
Outline: as §1

[6] = tested on: S. aureus ATCC BAA-2094 (MRSA SCCmec type V); experiment: MIC, broth dilution; format: cell-based, Staphylococcus aureus; conditions: Table 5; STIP3 variants, highest concentration 100 μg/mL
Outline: as §1

[7] = tested on: S. aureus ATCC BAA-1683 (MRSA SCCmec type IV); experiment: MIC, broth dilution; format: cell-based, Staphylococcus aureus; conditions: Table 5; STIP3 variants, highest concentration 100 μg/mL
Outline: as §1

[8] = tested on: S. aureus ATCC BAA-44 (MRSA SCCmec type I); experiment: MIC, broth dilution; format: cell-based, Staphylococcus aureus; conditions: Table 5; STIP3 variants, highest concentration 100 μg/mL
Outline: as §1

[9] = tested on: S. aureus ATCC 33592 (MRSA SCCmec type III); experiment: MIC, broth dilution; format: cell-based, Staphylococcus aureus; conditions: Table 5; STIP3 variants, highest concentration 100 μg/mL
Outline: as §1

[10] = tested on: S. aureus ATCC 29213; experiment: MIC, broth dilution; format: cell-based, Staphylococcus aureus; conditions: Table 5; STIP3 variants, highest concentration 100 μg/mL
Outline: as §1

[11] = tested on: S. aureus ATCC BAA-41 (MRSA SCCmec type II); experiment: MIC, broth dilution; format: cell-based, Staphylococcus aureus; conditions: Table 5; STIP3 variants, highest concentration 100 μg/mL
Outline: as §1

[12] = Circular dichroism spectroscopy; format: physicochemical; conditions: CD, 50% (v/v) TFE
From the text: The δ-toxins and the PSMs are characterized as α-helical peptides that form amyloid fibers^48. Although the propensity of individual peptides to form amyloids is correlated to their cytotoxicity^49, the amyloid form is not directly implicated in cell membrane disruption^50. […] CD spectroscopy was used to investigate the secondary structure of a subset of peptides within the collection (FIG. 4A, Table 5). The STIP variants adopted α-helical forms in 50% (v/v) trifluoroethanol (TFE), though unlike the full-length S. auricularis δ-toxin, they were unstructured in water. […] Specifically, peptides characterized by the greatest and least α-helical content in TFE had MICs above the highest tested threshold.
Circular dichroism spectroscopy. Peptides were dissolved in water at concentrations between 0.3 and 0.5 mg/mL. CD spectra were recorded on an Applied Photophysics Chirascan Plus CD spectrophotometer at room temperature in a 0.1 cm path-length quartz cuvette. Spectra were recorded from 180 to 260 nm.

[13] = tested on: Candida duobushaemulonii AR 394; experiment: MIC, YPD broth, CDC and FDA AR Candida isolate panel; format: cell-based; conditions: Table 9 below the line: only 200 or 100 μg/mL tested; values reported as 100 are ≤100 μg/mL
Outline: (§2)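 Peptide purity was 95%. Doubling dilutions were tested against yeast set at an optical density of […], with overnight standing incubation at 37° C and a sterile-water control.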

[14] = tested on: Candida lusitaniae AR 398; experiment: as above; format: cell-based; conditions: Table 9 below the line: only 200 or 100 μg/mL tested; values reported as 100 are ≤100 μg/mL
Outline: as §2

[15] = tested on: Candida duobushaemulonii AR 392; experiment: as above; format: cell-based; conditions: Table 9 below the line: only 200 or 100 μg/mL tested; values reported as 100 are ≤100 μg/mL
Outline: as §2

[16] = tested on: Candida haemulonii AR 395; experiment: as above; format: cell-based; conditions: Table 9 below the line: only 200 or 100 μg/mL tested; values reported as 100 are ≤100 μg/mL
Outline: as §2

[17] = tested on: Saccharomyces cerevisiae AR 400; experiment: as above; format: cell-based; conditions: Table 9 below the line: only 200 or 100 μg/mL tested; values reported as 100 are ≤100 μg/mL
Outline: as §2

[18] = tested on: Candida duobushaemulonii AR 391; experiment: as above; format: cell-based; conditions: Table 9 below the line: only 200 or 100 μg/mL tested; values reported as 100 are ≤100 μg/mL
Outline: as §2

[19] = tested on: Kodamae ohmeri AR 396; experiment: as above; format: cell-based; conditions: Table 9 below the line: only 200 or 100 μg/mL tested; values reported as 100 are ≤100 μg/mL
Outline: as §2

[20] = tested on: Candida krusei AR 397; experiment: as above; format: cell-based; conditions: Table 9 below the line: only 200 or 100 μg/mL tested; values reported as 100 are ≤100 μg/mL
Outline: as §2

[21] = tested on: Saccharomyces cerevisiae AR 399; experiment: as above; format: cell-based; conditions: Table 9 below the line: only 200 or 100 μg/mL tested; values reported as 100 are ≤100 μg/mL
Outline: as §2

[22] = tested on: Candida haemulonii AR 393; experiment: as above; format: cell-based; conditions: Table 9 below the line: only 200 or 100 μg/mL tested; values reported as 100 are ≤100 μg/mL
Outline: as §2

[23] = tested on: S. aureus / MRSA (ATCC MP-2 panel); format: cell-based, Staphylococcus aureus; conditions: MIC screen, in words
Experimental: In order to begin to characterize STIP3-1 and potential sites amenable to modification, an alanine scanning experiment was performed. A total of 16 peptides with single alanine substitutions were assessed to inform on the importance of individual residues to antimicrobial activity. […] Next a series of thirty STIP3-1 variants were designed, guided by the aforementioned alanine scan and a previous report that the central α-helical core of the S. aureus δ-toxin could be converted into AMP through the inclusion of additional lysine residues^39. The collection included ten members with single substitutions relative to STIP3-1 and others that incorporated a number of changes that were designed to increase overall and local cationic charge as well as hydrophobic character (Table 5). Each of the STIPs was screened, including STIP3-1 to STIP-31, for antibiotic activity against a methicillin-sensitive S. aureus test organism and a panel of 7 MRSA strains defined by distinct SCCmec genotypes (FIG. 2; ATCC MP-2).
Determination of minimum inhibitory concentrations. The MICs were measured for bioactive peptides identified from the initial screen. For bacterial studies, cation-adjusted Mueller Hinton (MH) broth was used as the growth medium whereas YPD was used for C. albicans. Bacterial cultures were diluted to a OD value of 6×10^−4 in MH broth and a 180 μl volume was mixed with 20 μl of peptide arrayed as 2-fold dilution series in a 96-well plate. For the positive control, 20 μl of sterile water was used. Plates were incubated as standing cultures overnight at 37° C. The lowest peptide concentration that resulted no observed microbial growth after an overnight treatment was defined as the MIC.

Substance | MIC (μg/mL) M. haemolytica [1] | MIC C. albicans MYA-2876 [3] | MIC S. aureus ATCC BAA 42 (VI) [4] | MIC S. aureus ATCC BAA 2313 (XI) [5] | MIC S. aureus ATCC BAA 2094 (V) [6] | MIC S. aureus ATCC BAA 1683 (IV) [7] | MIC S. aureus ATCC BAA 44 (I) [8] | MIC S. aureus ATCC 33592 (III) [9] | MIC S. aureus ATCC 29213 [10] | MIC S. aureus ATCC BAA 41 (II) [11] | MIC (μg/mL) Candida duobushaemulonii AR 394 [13] | MIC (μg/mL) Candida lusitaniae AR 398 [14] [µg/mL] | MIC (μg/mL) Candida duobushaemulonii AR 392 [15] | MIC (μg/mL) Candida haemulonii AR 395 [16] | MIC (μg/mL) Saccharomyces cerevisiae AR 400 [17] [µg/mL] | MIC (μg/mL) Candida duobushaemulonii AR 391 [18] | MIC (μg/mL) Kodamae ohmeri AR 396 [19] | MIC (μg/mL) Candida krusei AR 397 [20] | MIC (μg/mL) Saccharomyces cerevisiae AR 399 [21] [µg/mL] | MIC (μg/mL) Candida haemulonii AR 393 [22] | further results
TVGGLVKWILATVKKFA-NH2 [STIP3-28, TVGGLVKWILATVKKFA-NH2] | 12.5 µg/mL | 12.5 µg/mL | 12.5 µg/mL | 12.5 µg/mL | 6.25 µg/mL | 12.5 µg/mL | 12.5 µg/mL | 6.25 µg/mL | 25 µg/mL | 12.5 µg/mL | > (values below the line were determined using two concentrations of peptide 200 or 100 μg/mL) | ≤ 100 | > (values below the line were determined using two concentrations of peptide 200 or 100 μg/mL) | ≤ 100 µg/mL | ≤ 100 | > (values below the line were determined using two concentrations of peptide 200 or 100 μg/mL) | ≤ 100 µg/mL | ≤ 100 µg/mL | ≤ 100 | > (values below the line were determined using two concentrations of peptide 200 or 100 μg/mL) | MIC C. albicans Y537 [2]: 25 µg/mL; α helicity (%) [12]: 75%
TVGVLVKWILNVVAKFA [STIP3-24, TVGVLVKWILNVVAKFA] | > (> symbol indicates that no inhibition was observed at the highest concentration of peptide tested: 25 μg/mL) | > (> symbol indicates that no inhibition was observed at the highest concentration of peptide tested: 100 μg/mL) | > (no inhibition was observed at the highest concentration of peptide tested: 100 μg/mL for the STIP3 variants) | > (no inhibition was observed at the highest concentration of peptide tested: 100 μg/mL for the STIP3 variants) | > (no inhibition was observed at the highest concentration of peptide tested: 100 μg/mL for the STIP3 variants) | > (no inhibition was observed at the highest concentration of peptide tested: 100 μg/mL for the STIP3 variants) | > (no inhibition was observed at the highest concentration of peptide tested: 100 μg/mL for the STIP3 variants) | > (no inhibition was observed at the highest concentration of peptide tested: 100 μg/mL for the STIP3 variants) | > (no inhibition was observed at the highest concentration of peptide tested: 100 μg/mL for the STIP3 variants) | > (no inhibition was observed at the highest concentration of peptide tested: 100 μg/mL for the STIP3 variants) | > (values below the line were determined using two concentrations of peptide 200 or 100 μg/mL) | ≤ 100 | > (values below the line were determined using two concentrations of peptide 200 or 100 μg/mL) | > (values below the line were determined using two concentrations of peptide 200 or 100 μg/mL) | ≤ 100 | > (values below the line were determined using two concentrations of peptide 200 or 100 μg/mL) | > (values below the line were determined using two concentrations of peptide 200 or 100 μg/mL) | > (values below the line were determined using two concentrations of peptide 200 or 100 μg/mL) | ≤ 100 | > (values below the line were determined using two concentrations of peptide 200 or 100 μg/mL) | inhibition of S. aureus [23]: incapable of inhibiting S. aureus
